Data taken from PubChem BioAssay (NCI).
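Grown in 96-well plates, cells were treated for 48 hours with each compound at five concentrations. Insufficient inhibition: endpoint recorded as highest concentration tested. The concentration for full growth arrest is given as TGI.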

Tests used:
Assay in all cases: NCI tumour cell line growth inhibition, 48 h
HS 578T breast = tested on: HS 578T breast
HOP-62 NSCLC = tested on: HOP-62 NSCLC
HOP-92 NSCLC = tested on: HOP-92 NSCLC
SK-MEL-28 melanoma = tested on: SK-MEL-28 melanoma
UACC-257 melanoma = tested on: UACC-257 melanoma
IGROV1 ovarian = tested on: IGROV1 ovarian
T-47D breast = tested on: T-47D breast
MDA-MB-231 breast = tested on: MDA-MB-231 breast
SK-MEL-2 melanoma = tested on: SK-MEL-2 melanoma
SF-295 CNS = tested on: SF-295 CNS
KM12 colon = tested on: KM12 colon
MCF7 breast = tested on: MCF7 breast
HCT-15 colon = tested on: HCT-15 colon
PC-3 prostate = tested on: PC-3 prostate
SF-268 CNS = tested on: SF-268 CNS
SK-OV-3 ovarian = tested on: SK-OV-3 ovarian
RXF 393 renal = tested on: RXF 393 renal
OVCAR-5 ovarian = tested on: OVCAR-5 ovarian
SN12C renal = tested on: SN12C renal
OVCAR-3 ovarian = tested on: OVCAR-3 ovarian
RPMI-8226 leukemia = tested on: RPMI-8226 leukemia
HCT-116 colon = tested on: HCT-116 colon
786-0 renal = tested on: 786-0 renal
MDA-MB-435 = tested on: MDA-MB-435
SF-539 CNS = tested on: SF-539 CNS
HT29 colon = tested on: HT29 colon
HL-60(TB) leukemia = tested on: HL-60(TB) leukemia
UO-31 renal = tested on: UO-31 renal
MDA-N = tested on: MDA-N
ACHN renal = tested on: ACHN renal
M14 melanoma = tested on: M14 melanoma
COLO 205 colon = tested on: COLO 205 colon
MOLT-4 leukemia = tested on: MOLT-4 leukemia
HCC-2998 colon = tested on: HCC-2998 colon
U251 CNS = tested on: U251 CNS
BT-549 breast = tested on: BT-549 breast
OVCAR-8 ovarian = tested on: OVCAR-8 ovarian
SNB-19 CNS = tested on: SNB-19 CNS
NCI-H460 lung = tested on: NCI-H460 lung
SNB-75 CNS = tested on: SNB-75 CNS
EKVX NSCLC = tested on: EKVX NSCLC
NCI-H23 lung = tested on: NCI-H23 lung
DU-145 prostate = tested on: DU-145 prostate
UACC-62 melanoma = tested on: UACC-62 melanoma
K-562 leukemia = tested on: K-562 leukemia
LOX IMVI melanoma = tested on: LOX IMVI melanoma
OVCAR-4 ovarian = tested on: OVCAR-4 ovarian
SR leukemia = tested on: SR leukemia
A498 renal = tested on: A498 renal
MALME-3M melanoma = tested on: MALME-3M melanoma
SK-MEL-5 melanoma = tested on: SK-MEL-5 melanoma
CCRF-CEM leukemia = tested on: CCRF-CEM leukemia
SW-620 colon = tested on: SW-620 colon
A549 NSCLC = tested on: A549 NSCLC
NCI/ADR-RES ovarian = tested on: NCI/ADR-RES ovarian
NCI-H522 lung = tested on: NCI-H522 lung
CAKI-1 renal = tested on: CAKI-1 renal
NCI-H226 lung = tested on: NCI-H226 lung
TK-10 renal = tested on: TK-10 renal

CN(CCCN(C)Cc1ccc(Cl)c(Cl)c1)CCN1CCCC1
TGI (HS 578T breast): > 53.6 µM
TGI (HOP-62 NSCLC): 98.2 µM
TGI (HOP-92 NSCLC): > 28.3 µM
TGI (SK-MEL-28 melanoma): 4.6 µM
TGI (UACC-257 melanoma): 7.18 µM
TGI (IGROV1 ovarian): > 62.8 µM
TGI (T-47D breast): > 80.6 µM
TGI (MDA-MB-231 breast): 37.3 µM
TGI (SK-MEL-2 melanoma): 26.4 µM
TGI (SF-295 CNS): 53.9 µM
TGI (KM12 colon): > 100 µM
TGI (MCF7 breast): 43.6 µM
TGI (HCT-15 colon): > 88.4 µM
TGI (PC-3 prostate): > 100 µM
TGI (SF-268 CNS): > 93.5 µM
TGI (SK-OV-3 ovarian): > 100 µM
TGI (RXF 393 renal): 67.9 µM
TGI (OVCAR-5 ovarian): > 86.3 µM
TGI (SN12C renal): > 100 µM
TGI (OVCAR-3 ovarian): > 100 µM
TGI (RPMI-8226 leukemia): 17.5 µM
TGI (HCT-116 colon): > 54.2 µM
TGI (786-0 renal): 31.6 µM
TGI (MDA-MB-435): 11.7 µM
TGI (SF-539 CNS): 45.1 µM
TGI (HT29 colon): 32.2 µM
TGI (HL-60(TB) leukemia): > 100 µM
TGI (UO-31 renal): 10 µM
TGI (MDA-N): 15.8 µM
TGI (ACHN renal): > 100 µM
TGI (M14 melanoma): 15.7 µM
TGI (COLO 205 colon): 33 µM
TGI (MOLT-4 leukemia): 37.1 µM
TGI (HCC-2998 colon): 11.8 µM
TGI (U251 CNS): 47 µM
TGI (BT-549 breast): > 100 µM
TGI (OVCAR-8 ovarian): > 100 µM
TGI (SNB-19 CNS): > 100 µM
TGI (NCI-H460 lung): 70.5 µM
TGI (SNB-75 CNS): 81.7 µM
TGI (EKVX NSCLC): > 100 µM
TGI (NCI-H23 lung): > 100 µM
TGI (DU-145 prostate): > 100 µM
TGI (UACC-62 melanoma): 3.67 µM
TGI (K-562 leukemia): 15 µM
TGI (LOX IMVI melanoma): 41.2 µM
TGI (OVCAR-4 ovarian): > 100 µM
TGI (SR leukemia): 31.9 µM
TGI (A498 renal): 28.2 µM
TGI (MALME-3M melanoma): 30.9 µM
TGI (SK-MEL-5 melanoma): 19.5 µM
TGI (CCRF-CEM leukemia): 24.6 µM
TGI (SW-620 colon): > 100 µM
TGI (A549 NSCLC): > 80.9 µM
TGI (NCI/ADR-RES ovarian): > 100 µM
TGI (NCI-H522 lung): 37.1 µM
TGI (CAKI-1 renal): > 93.5 µM
TGI (NCI-H226 lung): 55.6 µM
TGI (TK-10 renal): > 82.7 µM
